What was measured:
[1] = target: T1, PKCα (Homo sapiens, UniProt P17252); experiment: cell-free competitive PKC binding assay with [3H]-phorbol dibutyrate; conditions: competition with [3H]-PDBu, recombinant human PKC isoform
T1 construct: purchased Invitrogen
Procedure: (§1) Because a prerequisite for PKC pathway involvement is binding to PKC, compounds were initially evaluated for PKC affinity in a cell-free competitive binding assay with tritiated phorbol dibutyrate ([^3H]-PDBu). Assays were performed with representative members of both the conventional (PKCα) and novel (PKCδ) PKC families. Subsequently, compounds were assayed for PKC activation in living cells using an isoform translocation assay.
(§2) To a 50 mL polypropylene tube was added Tris-HCl (pH 7.4, 1 M, 1 mL), KCl (1 M, 2 mL), CaCl2) (0.1 M, 30 μL), and bovine serum albumin (BSA, 40 mg, Sigma-Aldrich). This mixture was diluted to 20 mL with deionized H2O and mixed gently. The buffer was stored on ice until use.
(§3) For every two assays, 3.5 mg phosphatidylserine (Avanti Polar Lipids, porcine, 25 mg/mL CHCl3 solution) was concentrated by removing chloroform under a stream of nitrogen followed by reduced pressure. The solid PS was suspended as vesicles in freshly prepared PKC binding assay buffer (3.5 mL) by sonicating six times for 30 sec, with a 30 sec rest between sonications (Branson Sonifier 250, power=2, 50% duty cycle). The resulting milky cloudy mixture (1 mg/mL) was stored on ice until use.
(§4) Assay PKC was prepared by dissolving a 4 μg aliquot of the indicated recombinant human PKC isoform (Invitrogen) into 11.6 mL of PKC binding assay buffer (this amount is sufficient for two assays). The diluted PKC was stored on ice for immediate use.
(§5) ^3H-PDBu (American Radiolabeled Chemicals, Inc.; 1 mCi/mL acetone solution; specific activity: 20 Ci/mmol) was diluted […] with DMSO. The resulting 500 nM stock solution was further diluted with DMSO to 30 nM.
(§6) Compound dilutions were prepared by serially diluting from a chosen “high” concentration by factors of 3 or 4.
(§7) To a polypropylene tube was added 3.3 mL of 1 mg/mL PS vesicles solution, 11 mL of PKC isoform solution, and 1.1 mL of 30 nM ^3H-PDBu solution were added. The resulting solution was vortexed to mix and stored on ice.
(§8) Materials: • Glass-fiber filters (Whatman GF/B) were prepared by soaking them in a solution of aqueous polyethyleneimine (10% by vol, 18 mL) in deionized water (600 mL) for ≥1 h. • 500 mL “rinsing buffer” of 20 mM Tris, pH 7.4 was cooled on ice for the duration of the incubation period and for the remainder of the assay.
(§9) Triplicate data points were obtained for each analog concentration. For each data point, 280 μL of “Master Mix” Solution and 20 μL of analog compound at a specified concentration were added to a polypropylene tube. […] Maximal ^3H-PDBu binding was assessed in triplicate by substitution of the analog compound with 20 μL DMSO. The solutions were vortexed to mix, incubated at 37° C. for 10 min, and incubated on ice for at least 30 min prior to filtration. Using a Brandel Harvester, the assay contents from each polypropylene tube were vacuum-filtered through polyethylenimine-soaked filters, washing with rinsing buffer (3×) and drying first under vacuum for 5 min and then under ambient conditions for ≥2 h. The resulting filters had circular perforations for each data point, which were removed with forceps and placed in a scintillation vial. Scintillation vials were filled with Bio-Safe II scintillation fluid (5 mL) and measured for radioactivity using a Beckman LS 6000SC scintillation counter. Counts per minute (cpm) were averaged for each triplicate dilution. The data were plotted—cpm vs. log(concentration)—using Prism® by GraphPad Software and an IC50 was determined using that program's built-in one-site competition least squares regression function. Ki values were calculated using the equation: Ki=IC50/(1+([3H−PDBu]/Kd)). The Kd of ^3H-PDBu for PKC isoforms was measured separately via saturation binding experiments under identical conditions.

[2] = system: PKC; experiment: cell-free PKC binding assay, isoform not given; parameters: species or system human
Procedure: as §1, §4, §9

[3] = system: CD22 surface expression in NALM6 cells; experiment: CD22 surface expression assay by flow cytometry; format: cell-based, human
Procedure: Cell cultures were maintained between 4×10^5 and 3×10^6 cells/mL according to vendor instructions.
Cell suspension from a confluent T75 flask (Fisher) was transferred to a 15 mL falcon tube and centrifuged at 1100 rpm for 7 minutes. […] Cells were counted using a Countess II Automated Cell Counter (Fisher). […] 199 μL of this stock was added to 24 wells (enough for triplicate measurements for 8 different experimental conditions) in a 96-well plate. […] 1 μL of DMSO or the appropriate stock solution of compound in DMSO was added to each well. Cells were incubated for 24 hours, at which point the cell suspensions were transferred to 1.5 mL Eppendorf tubes and diluted with 1.0 mL of PBS (Hyclone, without Ca^2+ or Mg^2+). Samples were centrifuged at 2000 rpm for 5 min at RT. […] Cells were sub-cultured between 2×10^5 and 3×10^6 cells/mL in 24-well plates for an additional 24 hrs-7 days, at which point CD22 surface expression was assayed by flow cytometry.
Cells from one well were counted using a Countess II Automated Cell Counter (Fisher). ˜200,000-300,000 cells from each well were added to 1.5 mL Eppendorf tubes containing PBS (final volume ˜1.2 mL). The cell suspensions were centrifuged at 1500 rpm for 7 minutes at 4° C. The supernatant was aspirated, and the cell pellet was resuspended in 99 μL of pre-chilled FACS buffer (0.5% w/v BSA in PBS). […] Samples were then diluted with an additional 1.0 mL of FACS buffer and centrifuged at 1500 rpm for 7 minutes at 4° C. […] Cells were stained with DAPI and CD22 surface expression was analyzed using the FACScan Analyzer at the Stanford Shared FACS Facility. Data analysis was performed using FlowJo and Microsoft Excel.

[4] = system: CD22 surface expression in JB cells; experiment: CD22 surface expression assay, AIDS-NHL cell line JB; conditions: 1 nM or 10 nM, 48 hours
Procedure: (§10) AIDS-NHL cell lines were incubated in IF10 medium, consisting of IMDM medium (Life technologies) containing 10% fetal bovine serum (FBS, Omega Scientific), 100 units/mL of penicillin, and 100 μg/ml of streptomycin (Invitrogen). Cells were incubated at 37° C. in 5% CO2.
(§11) Cells were exposed to compound for the either 24 or 48 h before staining and flow cytometric analysis of receptor levels.
(§12) Cells in each well were washed with phosphate buffered saline (PBS) containing 2% FBS, then cells were centrifuged for 9 min at 233 xg and resuspended in 50 μL of a 1:1 dilution of phosphate buffered saline (PBS): Human AB serum (Sigma). […] Stained samples were stored at 4° C. Flow cytometry samples were analyzed using a FACSCelesta (BD Biosciences) flow cytometer and data were analyzed using FlowJo software (version 10).
(§13) Panel C: JB cells were incubated with 1 nM (left hand bars) or 10 nM (right hand bars) of compound for 48 hours. CD22 surface expression was then assayed by flow cytometry (n=6 biological replicates; data presented as mean values ±SE). Panel D: 2F7 cells were incubated with 1 nM (left hand bars) or 10 nM (right hand bars) of compound for 48 hours. CD22 surface expression was then assayed by flow cytometry (n=6 biological replicates; data presented as mean values ±SE).

[5] = system: CD22 surface expression in 2F7 cells; experiment: CD22 surface expression assay, AIDS-NHL cell line 2F7; conditions: 1 nM or 10 nM, 48 hours
Procedure: as §10, §11, §12, §13

[6] = system: NALM6 tumor cells; experiment: NSG mice with NALM6 tumor cells treated with CD22 CAR T cells plus bryostatin 1; conditions: NALM6 tumor cells day 0, CD22 CAR day 3, bryostatin 1 three times weekly for 2 weeks
Description: Mice were imaged using IVIS™ technology and luciferin-D IP injections.

[7] = target: T2, PKCδ (Homo sapiens, UniProt Q05655); experiment: cell-free competitive PKC binding assay with [3H]-phorbol dibutyrate; conditions: competition with [3H]-PDBu, recombinant human PKC isoform
T2 construct: purchased Invitrogen
T2 sequence (Q05655 whole entry, canonical isoform): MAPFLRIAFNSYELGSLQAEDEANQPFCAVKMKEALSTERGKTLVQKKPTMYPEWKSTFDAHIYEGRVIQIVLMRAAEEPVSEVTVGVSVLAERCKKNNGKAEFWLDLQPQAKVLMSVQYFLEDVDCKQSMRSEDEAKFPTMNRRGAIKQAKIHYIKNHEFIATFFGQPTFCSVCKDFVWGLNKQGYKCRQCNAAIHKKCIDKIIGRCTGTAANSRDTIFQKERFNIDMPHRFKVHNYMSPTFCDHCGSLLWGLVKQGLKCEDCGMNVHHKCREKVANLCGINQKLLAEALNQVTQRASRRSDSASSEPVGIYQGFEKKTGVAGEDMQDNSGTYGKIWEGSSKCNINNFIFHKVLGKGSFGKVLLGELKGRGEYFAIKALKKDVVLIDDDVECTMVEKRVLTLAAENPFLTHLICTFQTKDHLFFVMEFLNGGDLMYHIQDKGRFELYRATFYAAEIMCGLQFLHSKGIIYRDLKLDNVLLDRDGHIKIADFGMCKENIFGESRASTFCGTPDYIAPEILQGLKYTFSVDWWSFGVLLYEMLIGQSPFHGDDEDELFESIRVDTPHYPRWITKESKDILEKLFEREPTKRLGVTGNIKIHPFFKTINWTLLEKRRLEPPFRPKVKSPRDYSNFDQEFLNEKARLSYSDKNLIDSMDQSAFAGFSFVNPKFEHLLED
Procedure: as §1, §2, §3, §4, §5, §6, §7, §8
Triplicate data points were obtained for each analog concentration. For each data point, 280 μL of “Master Mix” Solution and 20 μL of analog compound at a specified concentration were added to a polypropylene tube. […] Maximal ^3H-PDBu binding was assessed in triplicate by substitution of the analog compound with 20 μL DMSO. The solutions were vortexed to mix, incubated at 37° C. for 10 min, and incubated on ice for at least 30 min prior to filtration. Using a Brandel Harvester, the assay contents from each polypropylene tube were vacuum-filtered through polyethylenimine-soaked filters, washing with rinsing buffer (3×) and drying first under vacuum for 5 min and then under ambient conditions for ≥2 h. The resulting filters had circular perforations for each data point, which were removed with forceps and placed in a scintillation vial. Scintillation vials were filled with Bio-Safe II scintillation fluid (5 mL) and measured for radioactivity using a Beckman LS 6000SC scintillation counter. Counts per minute (cpm) were averaged for each triplicate dilution. The data were plotted—cpm vs. log(concentration)—using Prism® by GraphPad Software and an IC50 was determined using that program's built-in one-site competition least squares regression function. […] The Kd of ^3H-PDBu for PKC isoforms was measured separately via saturation binding experiments under identical conditions.

[8] = system: PKCδ-GFP fusion protein; experiment: PKCδ-GFP translocation assay in living CHO-k1 cells (confocal microscopy); format: cell-based, Chinese hamster
Procedure: as §1
Chinese hamster ovary factor K1 (CHO-k1, ATCC) cells were cultured in F-12 Kaighn's media (Hyclone, 10% fetal bovine serum, 1% penicillin/streptomycin added, referred to as F-12+/+ below) at 37° C. in an incubator (5% CO2). Cell cultures were maintained by splitting cells 1:3 when they reached ˜75-100% confluence (every 2-3 days) as follows:
1 mL of the cell suspension was then added to 9 mL of fresh F-12+/+ and the sample was sub-cultured until reaching confluence (˜2-3 days).
Cells were counted using a Countess II Automated Cell Counter (Fisher). The cell suspension was diluted to 240,000 cells/mL with fresh F-12+/+ and 2.5 mL of this diluted stock was added to one well in a 6-well plate. The cells were then cultured for 24 hours.
F-12+/+ was aspirated and cells were washed with F-12−/−. 2 mL of fresh F-12−/− was then added to each well, taking care not to disturb adherent cells. For each well of CHO-k1 cells, 12.5 μL Lipofectamine 2000 reagent (Invitrogen) was added to 250 μL Opti-MEM reduced serum media (Invitrogen) in a polypropylene tube and incubated for 20 minutes at RT. Meanwhile, for each well, 4 μg of PKCδ-GFP pDNA and 250 μL Opti-MEM reduced serum media was added to a separate polypropylene tube. 250 μL of the Lipofectamine 2000 suspension was added to the DNA suspension and the solution incubated for 30 minutes at RT. 500 μL of the Lipofectamine/DNA suspension was added to the respective wells of the 6-well plate. The cells were then incubated at 37° C. (5% CO2) for ˜24 hrs.
F-12+/+ was aspirated and cells were washed with F-12−/−. 2.4 mL of fresh F-12−/− was then added to each well, taking care not to disturb adherent cells. A 4 μg aliquot of PKCδ-GFP pDNA was added to PBS (pH 5.5, final volume 100 μL). 5.6 μL of DA 13:11 (2 mM stock in DMSO) was then added to the DNA solution, and the mixture was gently mixed (by flicking) for 20 seconds, at which point it was added directly to the respective wells of the 6-well plate. The cells were then incubated at 37° C. (5% C02) for ˜24 hrs.
After incubation, the media was aspirated and cells were washed with PBS (2.0 mL) and trypsinized (500 μL). The cell suspension was then diluted with 2.0 mL F-12+/+. 200 μL aliquots were added to 3 wells of a Lab-Tek II 4-well chambered coverglass slide (Fisher), producing 4 slides in total, each with three wells of cells. The cell suspension was directly diluted with 600 μL of additional F-12+/+. The resulting samples were incubated for ˜24 hrs. prior to imaging.
Fluorescent images were obtained using a Leica SP8 White Light Confocal microscope and the Leica AF software package. Prior to analysis, media was aspirated and 800 μL of PBS (Hyclone, without Ca^2+ or Mg^2+) supplemented with glucose (10 mM) was added to each well of the chambered coverglass slide. Bryostatin and bryostatin analogs were diluted to the appropriate concentration in 200 μL of 10 mM glucose in PBS. Cells were located for imaging and data was recorded for three wells in parallel, imaging at predetermined positions in each well using adaptive focus control. Cells were imaged at 30 second intervals following the addition of compound (set to t=0) for 20-40 minutes. Data were recorded at room temperature. Images were exported as .lif files and fluorescence intensity was analyzed using FIJI (NIH) software.

Row | Compound | Ki [1] | binding affinity to PKC, in words [2] | time for which increased CD22 surface expression was sustained following treatment ([3]; 10 nM for 24 hours, then washed out and sub-cultured) | increase in CD22 surface density ([3]; NALM6 cells incubated 24 hours, flow cytometry) | upregulated CD22 surface expression [4] | upregulated CD22 surface expression [5] | durability of response to CD22 CAR T cell treatment [6] | Ki [7] | activity in the PKC translocation assay at 200 nM ([8]; 200 nM) | cytosolic PKC translocated to the plasma membrane ([8]; 1000 nM, at about 5 minutes) | concentration* (minimum effective concentration required to induce translocation of PKC-GFP to the membrane) ([8]; CHO-k1 cells) | % Translocation ([8]; maximum translocation of PKCδ-GFP to the plasma membrane at the concentration printed in the same cell, CHO-k1 cells, SUW212: only brief translocation observed)
1 | CCC/C=C/C=C/C(=O)O[C@H]1/C(=C/C(=O)OC)C[C@H]2C[C@H]([C@@H](C)O)OC(=O)C[C@H](O)C[C@@H]3C[C@H](OC(C)=O)C(C)(C)[C@](O)(C[C@@H]4C/C(=C/C(=O)OC)C[C@H](/C=C/C(C)(C)[C@]1(O)O2)O4)O3 [Bryostatin 1, reference compound] | 0.8 nM | single digit nanomolar binder | up to 7 days | > 2 fold | ~2 fold | ~2 fold | improves durability of response | – | – | – | – | –
2 | CCCC=CC=CC(=O)OC1C(=CC(=O)OC)CC2CC(C(C)O)OC(=O)CC(O)CC3CC(OC(C)=O)C(C)(C)C(O)(CC4CC(=CC(=O)OC)CC(C=CC(C)(C)C1(O)O2)O4)O3 (centres unmarked) [SUW201] | 0.54 nM | – | – | – | ~2 fold | ~2 fold | – | – | – | – | – | –
3 | CCCC=CC=CC(=O)OC1C(=CC(=O)OC)CC2CC(C(C)O)OC(=O)CC(O)CC3CC(OC(C)=O)C(C)(C)C(O)(CC4CC(OC(=O)CCc5c[nH]c6ccccc56)CC(C=CC(C)(C)C1(O)O2)O4)O3 (centres unmarked) [SUW210] | 5.6 nM | high affinity PKC binders | – | – | – | – | – | 7.3 nM | inactive | ~70% | 1000 nM | 75%

Reference: patent US20220193029A1, “BRYOSTATIN COMPOUNDS FOR ENHANCEMENT OF IMMUNOTHERAPY” (priority 2019, published 2022)
